Where a SMILES comes first, the peptide text is derived from it. The star is where a group is joined. Cbz = O=C(OCc1ccccc1)*
Key:
MnSOD = MnSOD expression after MG132 (microarray, Western blot); assay type: cell-based, human
Source text: (§1) Other researchers have reported that there is a correlation between proliferative status and sensitivity to oxidative stress in human fibroblasts (Naderi et al., 2003, “Oxidative stress-induced apoptosis in dividing fibroblasts involves activation of p38 MAP kinase and over-expression of Bax: resistance of quiescent cells to oxidative stress, Apoptosis 8, 91-100, which is incorporated herein by reference as if fully set forth). […] A Western blot analysis was used to monitor the levels of the ROS detoxifying enzymes MnSOD and catalase, an enzyme that converts hydrogen peroxide to water and oxygen. The protein concentrations of MnSOD and catalase were higher in quiescent fibroblasts than in proliferating cells (FIG. 26B), consistent with a previous report (Sarsour et al., 2008, “Manganese superoxide dismutase activity regulates transitions between quiescent and proliferative growth, Aging cell 7, 405-417, which is incorporated herein by reference as if fully set forth). […] It was hypothesized that the higher levels of ROS-detoxifying enzymes in quiescent fibroblasts contributes to the protection of quiescent fibroblasts from proteasome inhibition-induced apoptosis. Intracellular superoxide levels were monitored using dihydroethidium (DHE), an indicator of superoxide anions.

LC3-II = LC3-II immunoblot (autophagy / autophagic flux); assay type: cell-based, human; settings: MG132 treatment; proliferating, contact-inhibited and serum-starved states
Protocol: The levels of autophagy components—Atg5/Atg12, Atg7, Atg3, and LC3-I and LC3-II—were monitored in proliferating and contact-inhibited fibroblasts using immunoblotting (FIG. 21A). As a positive control for autophagy induction, samples of cells in each cell cycle state were also incubated in Kreb's Ringer Bicarbonate solution (KRB), a protocol that induces autophagy through amino acid starvation and elimination of other nutrients except glucose. Levels of Atg5/Atg12, Atg7, and LC3-II were elevated in all of the amino acid starvation and contact-inhibition states as compared to the proliferating state (FIG. 21A). Atg3 was induced in all quiescent states compared with proliferating states, including amino acid starvation. In order to differentiate whether the high levels of autophagy proteins resulted from a blockade of autophagy degradation or active flux through the pathway, we monitored the levels of LC3-II in proliferating and 7 dCI fibroblasts in the presence of bafilomycin A1 (Baf-A1). Baf-A1 is a vacuolar-type H^+-ATPase inhibitor that prevents autophagosome fusion with the lysosome due to an increase in lysosomal pH. […] This finding is consistent with active autophagic flux in quiescent fibroblasts
In addition to its role in providing amino acids and energy under starvation conditions, autophagy is involved in maintenance of cellular homeostasis and resistance to tumorigenesis through degradation of old or damaged proteins and entire organelles. It was hypothesized that autophagy in contact-inhibited cells could function to degrade old and/or damaged proteins that would otherwise accumulate in the cytoplasm due to lack of cell division as a mechanism for dilution of these proteins. Oxidation of proteins causes the formation of carbonyl groups on amino acids, and carbonylation can disrupt protein function. To monitor the extent of protein oxidation in proliferating and contact-inhibited fibroblasts, the protein carbonyl groups were derivatized using 2,4-dinitrophenylhydrazine (DNP), and monitored using immunoblotting with an antibody that recognizes the covalently added DNP. The levels of oxidized proteins in proliferating and 7 dCI fibroblasts were monitored in cells that were either competent to perform autophagy (control), or were stably expressing an shRNA against the essential autophagy components Atg5 (sh-Atg5) or Atg7 (sh-Atg7), which are known to represent autophagy-defective phenotypes in other model systems. […] In contact-inhibited fibroblasts, in contrast, the levels of oxidized proteins increased 1.5-fold±0.1 in 7 dCI sh-Atg5 fibroblasts as compared to vector control counterparts (p=0.009) (FIG. 22B). […]
To test this hypothesis, the levels of an autophagy-specific form of the LC3 protein, LC3 II, were monitored compared to a housekeeping protein (Klionsky et al., 2008, “Guidelines for the use and interpretation of assays for monitoring autophagy in higher eukaryotes,” Autophagy 4, 151-175, which is incorporated herein by reference as if fully set forth). […]
We observed an increase in the ratio of LC3 II to GAPDH in response to MG132 treatment for cells in proliferating, contact-inhibited and serum-starved states (FIG. 25B). To test whether the high levels of LC3 II in quiescent cells in response to MG132 treatment result from a blockade of autophagy degradation or from active flux through the pathway, LC3 II levels were monitored in proliferating and quiescent fibroblasts treated with MG132 in the presence or absence of bafilomycin A1 (Baf). […]

[1] = annexin V / PI flow cytometry after proteasome inhibition; assay type: cell-based, human; settings: human
Protocol: (§2) To elucidate the responses of proliferating and quiescent fibroblasts to proteasome inhibition, the effects of known proteasome inhibitors on proliferating and quiescent fibroblasts were examined.
(§3) At the highest dose (10 μM), approximately 50% of proliferating cells were apoptotic (FIG. 24A-lower right (Q4), upper right (Q2), and upper left (Q1) quadrants represent early apoptosis, late apoptosis, and very late apoptosis or necrosis, respectively). In comparison, quiescent fibroblasts were largely unaffected by MG132 treatment, showing far lower levels of apoptosis.

[2] = tested on: proliferating and quiescent fibroblasts; test: as above; assay type: cell-based, human; settings: for cells with signs of apoptosis: highest dose (10 μM)
Protocol: as §2, §3

[3] = tested on: primary human fibroblasts; test: caspase 3/7 activity apoptosis assay (ApoTox-Glo) in proliferating and quiescent fibroblasts; assay type: cell-based; settings: MG132 0 to 10 μM; proliferating and serum-starved cells
Protocol: Referring to FIG. 2A, primary human fibroblasts were tested either in a proliferating state or after being induced into quiescence. Quiescence may be induced by either contact inhibition or serum starvation. Cells were treated with DHEA for four days, with bafilomycin added on the fourth day. Apoptosis was assessed based on the activity of caspase 3/7 for a fluorogenic substrate.
PPP inhibition and apoptosis analysis: Apoptosis was measured based on the levels of caspase 3/7 released into the media using the ApoTox-Glo Triplex Assay according to the manufacturer's instructions (Promega Corp., Madison, Wis.). Cells were plated in triplicate at 10,000 cells per well in white-walled, clear-bottom 96-well plates (Costar, Corning Life Sciences, Lowell, Mass.). For contact inhibition, cells were plated 7 days prior to the start of treatment, for serum starvation cells were plated 4 days prior to treatment and switched to 0.1% serum media for the remaining 3 days, while proliferating cells were plated the day prior to the start of treatment. […] Cells in serum starvation conditions were incubated in 0.1% serum during treatment as well. The apoptosis reagent was added at 100 μl per well and incubated for 1 h prior to reading. Luminescence was read from the top using a Synergy-2 plate reader (Biotek, Winooski, Vt.). Luminescence data were normalized to the vehicle only condition.
Apoptosis induction was assessed by monitoring caspase 3/7 activity using a luminescent caspase substrate. This assay is optimized for high-throughput screening in 96-well plates and allows multiple concentrations and combination of drugs to be tested in triplicate at different time points. […] Therefore, this assay was used to compare proliferating and serum-starved cells only.

superoxide = test: intracellular superoxide levels with dihydroethidium (DHE); assay type: cell-based, human; settings: proteasome inhibition
Source text: as §1

CC(C)C[C@@H](C=O)NC(=O)[C@H](CC(C)C)NC(=O)[C@H](CC(C)C)NC(=O)OCc1ccccc1 [MG132] (Cbz-Leu-Leu-Leu-aldehyde)
MnSOD protein levels (MnSOD; Western blot, proliferating and quiescent fibroblasts): further elevated MnSOD levels
MnSOD transcript expression (MnSOD; microarray, proliferating and quiescent cells): induced MnSOD expression
ratio of LC3 II to GAPDH (LC3-II): increase
cytotoxicity at 24 h, 10 μM [1]: ~50%
viability, quiescent vs proliferating fibroblasts ([2]; 48 hours of treatment): significantly higher number of quiescent fibroblasts maintained viability
cells with signs of apoptosis ([2]; contact-inhibited fibroblasts, 24 hours): approximately 14%
apoptotic cells (annexin V and PI) ([2]; proliferating cells, 10 μM, 24 hours): approximately 50%
proliferating cell viability (fraction PI negative) ([2]; proliferating cells, 24 hours): statistically significant, dose-dependent decrease
quiescent cell viability ([2]; quiescent cells, 24 hours, up to 10 μM MG132, 1 μM epoxomicin): maintained high viability
cells with signs of apoptosis ([2]; serum-starved fibroblasts, 24 hours): ~10%
caspase 3/7 activity [3]: dose-dependent increases
superoxide levels (superoxide; proliferating cells): significant induction of superoxide levels
superoxide levels (superoxide; quiescent cells): maintained basal superoxide levels

From patent US20130064815A1, “INDUCING APOPTOSIS IN QUIESCENT CELLS” (THE TRUSTEES OF PRINCETON UNIVERSITY, priority 2011, published 2013)
